Experimental data reported in patent US7704986B2, “Vitamin D3 analogues for the prevention and treatment of bone disorders” (K.U. Leuven Research and Development, priority 2004, dated 2010).

Tests used:
[1] = tested on: NMRI mice; assay: In vivo activity: serum and femur calcium after 7 daily i.p. injections; conditions: for Serum calcium vs. control (%) / femur calcium vs. control (%): 7 days
Description: Eight weeks old, male NMRI mice were fed a vitamin D-replete diet (0.2% calcium, 1% phosphate, 2000 U vitamin D/kg; Hope Farms, Woerden, The Netherlands). Groups of six mice were intraperitoneally injected daily during 7 consecutive days with different doses of 1,25(OH)2D3 (0.2 and 0.4 μg/kg/day) or analogues. The control group was injected with vehicle (arachis oil). The average weight of each group of 6 mice was determined at the beginning and at the end of the experiment. The following parameters were evaluated: serum calcium and femur calcium. Serum calcium was measured by a microcolorimetric assay (Sigma, St. Louis, Mo.). Femurs were removed and femur calcium content was measured in HCl-dissolved bone ash (obtained by heating for 24 hours in an oven at 100° C.), using the same technique as for serum calcium. Student's t-tests were carried out to detect significant differences; p<0.05 was accepted as significant. […]

[2] = molecular target: T1, human vitamin D binding protein (hDBP) (Homo sapiens, UniProt P02774); assay: Affinity for human vitamin D binding protein; conditions: hDBP 0.18 μM, 4° C. 3 hours; 1,25(OH)2D3 = 100
T1 sequence (P02774 17-474): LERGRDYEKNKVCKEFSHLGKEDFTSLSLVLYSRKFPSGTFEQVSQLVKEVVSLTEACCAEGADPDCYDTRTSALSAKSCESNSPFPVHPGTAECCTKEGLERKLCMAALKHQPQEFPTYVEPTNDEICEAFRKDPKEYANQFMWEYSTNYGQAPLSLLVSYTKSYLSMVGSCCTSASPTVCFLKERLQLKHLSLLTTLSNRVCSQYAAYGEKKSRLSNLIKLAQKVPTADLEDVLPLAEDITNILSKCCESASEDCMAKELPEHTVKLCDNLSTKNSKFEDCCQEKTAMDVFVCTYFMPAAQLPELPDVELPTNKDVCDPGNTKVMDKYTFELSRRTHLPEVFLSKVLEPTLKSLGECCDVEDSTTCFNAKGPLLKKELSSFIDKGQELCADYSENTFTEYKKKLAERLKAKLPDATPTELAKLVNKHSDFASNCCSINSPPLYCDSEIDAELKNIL
Description: Binding of 1α,25(OH)2D3 analogues to hDBP was performed at 4° C. […] Phase separation was then obtained by the addition of 0.5 ml of cold dextran-coated charcoal.

[3] = molecular target: T2, vitamin D receptor (VDR) (Sus scrofa, UniProt A3RGC1); assay: Affinity for vitamin D receptor: competition with [3H]1α,25(OH)2D3; format: binding; conditions: pig intestinal mucosa supernatant, 4° C. 20 hours; 1α,25(OH)2D3 = 100%
T2 construct: high speed supernatant from intestinal mucosa homogenates obtained from normal pigs; from tissue; host or cells: pig intestinal mucosa (high speed supernatant of homogenate)
T2 sequence (A3RGC1 1-427): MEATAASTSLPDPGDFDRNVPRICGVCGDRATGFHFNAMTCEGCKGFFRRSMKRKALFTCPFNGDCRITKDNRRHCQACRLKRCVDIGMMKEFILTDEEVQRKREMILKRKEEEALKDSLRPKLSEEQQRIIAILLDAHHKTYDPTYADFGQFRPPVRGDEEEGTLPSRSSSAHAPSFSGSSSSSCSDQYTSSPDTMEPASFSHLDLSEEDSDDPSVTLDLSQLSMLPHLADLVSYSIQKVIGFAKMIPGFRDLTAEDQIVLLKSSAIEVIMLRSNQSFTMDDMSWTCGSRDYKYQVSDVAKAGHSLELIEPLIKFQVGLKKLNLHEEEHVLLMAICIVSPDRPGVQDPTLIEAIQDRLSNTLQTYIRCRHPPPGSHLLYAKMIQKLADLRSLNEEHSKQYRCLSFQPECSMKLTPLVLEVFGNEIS
Description: The methods used herein to evaluate the binding properties of vitamin D analogues are state of the art techniques used for steroid hormone (including vitamin D) binding assays. […] Incubation was performed at 4° C. for 20 hours and phase separation was obtained by addition of dextran-coated charcoal.

[4] = dose 0.4 μg/kg/d i.p., * in cell = P < 0.05
[5] = Table 6, dose 0.4 μg/kg/day, * in cell = p < 0.05
[6] = dose 0.2 μg/kg/d i.p., * in cell = P < 0.05

Row | Serum calcium vs. control (%) [1, 4] | DBP (relative affinity) [2] | VDR (relative affinity) [3] | Serum calcium vs. control (%) [1, 6] | Compound | femur calcium vs. control (%) [1, 4] | femur calcium vs. control (%) [1, 6] | also measured
1 |  | 0% | 60% |  | C=C1/C(=C\C=C\[C@@H]2CC[C@](C)([C@H](C)CC#CC(C)(C)O)C2(C)C)C[C@@H](O)C[C@@H]1O [(1R,3S)-5-((Z,2E)-3-((1S,3R)-3-((1R)-5-hydroxy-1,5-dimethyl-3-hexynyl)-2,2,3-trimethylcyclopentyl)-2-propenylidene)-4-methylenecyclohexane-1,3-diol] |  |  | Serum calcium vs. control (%) ([1]; dose 2 μg/kg/d i.p.): 105%; femur calcium vs. control (%) ([1]; dose 2 μg/kg/d i.p., * in cell = P < 0.05): 113* %
2 |  | 4% | 3% |  | CC(C)[C@H](O)CC[C@H](C)[C@@]1(C)CC[C@@H](/C=C/C=C2C[C@@H](O)C[C@H](O)C2)C1(C)C (stereo in doubt) [example 19, (1R,3R)-5-{(E)-3-[(S)-3-((S)-4-hydroxy-1-(S)-methyl-5-methyl-hexyl)-2,2,3-trimethyl-cyclopentyl]-allylidene}-cyclohexane-1,3-diol] |  |  | Serum calcium vs. control (%) ([1]; dose 5 μg/kg/d i.p.): 100%; femur calcium vs. control (%) ([1]; dose 5 μg/kg/d i.p., * in cell = P < 0.05): 115* %
3 |  | 4% | 20% | 98% | C=C1/C(=C\C=C\[C@@H]2CC[C@](C)([C@@H](C)CC[C@H](O)C(C)C)C2(C)C)C[C@@H](O)C[C@@H]1O [example 24, (1R,3S)-5-((Z,2E)-3-((1S,3R)-3-((1S,4S)-4-hydroxy-1,5-dimethylhexyl)-2,2,3-trimethylcyclopentyl)-2-propenylidene)-4-methylenecyclohexane-1,3-diol] |  | 112* % | 
4 |  | 4% | 9% |  | C=C1/C(=C\C=C\[C@@H]2CC[C@](C)([C@@H](C)CC[C@@H](O)C(C)C)C2(C)C)C[C@@H](O)C[C@@H]1O [example 20, (1R,3S)-5-((Z,2E)-3-((1S,3R)-3-((1S,4R)-4-hydroxy-1,5-dimethylhexyl)-2,2,3-trimethylcyclopentyl)-2-propenylidene)-4-methylenecyclohexane-1,3-diol] |  |  | Serum calcium vs. control (%) ([1]; dose 10 μg/kg/d i.p.): 99%; femur calcium vs. control (%) ([1]; dose 10 μg/kg/d i.p., * in cell = P < 0.05): 111* %

The next lines start with the compound.

Row | Compound | Serum calcium vs. control (%) [1, 4] | DBP (relative affinity) [2] | VDR (relative affinity) [3] | Serum calcium vs. control (%) [1, 6] | femur calcium vs. control (%) [1, 4] | femur calcium vs. control (%) [1, 6] | also measured
5 | C=C1/C(=C\C=C\[C@@H]2CC[C@](C)([C@H](C)CCCC(O)(C(F)(F)F)C(F)(F)F)C2(C)C)C[C@@H](O)C[C@@H]1O [(1R,3S)-5-((Z,2E)-3-((1S,3R)-3-((1R)-6,6,6-trifluoro-5-hydroxy-1-methyl-5-(trifluoromethyl)hexyl)-2,2,3-trimethylcyclopentyl)-2-propenylidene)-4-methylenecyclohexane-1,3-diol] | 98% | 40% | 30% |  | 114* % |  | 
6 | C=C1/C(=C\C=C2/CCC[C@]3(C)[C@@H]([C@H](C)CCCC(C)(C)O)CC[C@@H]23)C[C@@H](O)C[C@@H]1O [1,25(OH)2D3, Calcitriol, reference compound] | 136* % |  |  | 121* % | 94* % | 97% | Femur calcium versus control (%) ([1]; Table 6, dose 0.2 μg/kg/day): 97%; Serum calcium versus control (%) ([1]; Table 6, dose 0.2 μg/kg/day, * in cell = p < 0.05): 121* %; Femur calcium versus control (%) [1, 5]: 94* %; Serum calcium versus control (%) [1, 5]: 136* %
7 | CCC(O)(CC)CCC[C@H](C)[C@@]1(C)CC[C@@H](/C=C/C=C2C[C@@H](O)C[C@H](O)C2)C1(C)C [(1R,3R)-5-((E)-3-((1S,3R)-3-((1S)-5-ethyl-5-hydroxy-1-methylheptyl)-2,2,3-trimethylcyclopentyl)-2-propenylidene)cyclohexane-1,3-diol] |  | <0.1% | 60% |  |  |  | 
8 | C=C1/C(=C\C=C\[C@@H]2CC[C@](C)([C@H](C)CC#CC(O)(C(F)(F)F)C(F)(F)F)C2(C)C)C[C@@H](O)C[C@@H]1O [(1R,3S)-5-((Z,2E)-3-((1S,3R)-3-((1R)-6,6,6-trifluoro-5-hydroxy-1-methyl-5-trifluoromethyl-3-hexynyl)-2,2,3-trimethylcyclopentyl)-2-propenylidene)-4-methylenecyclohexane-1,3-diol] | 94% | 0% | 60% |  | 115* % |  | 
9 | C=C1/C(=C\C=C\[C@@H]2CC[C@](C)([C@@H](C)CCCC(O)(C(F)(F)F)C(F)(F)F)C2(C)C)C[C@@H](O)C[C@@H]1O [(1R,3S)-5-((Z,2E)-3-((1S,3R)-3-((1S)-6,6,6-trifluoro-5-hydroxy-1-methyl-5-(trifluoromethyl)hexyl)-2,2,3-trimethylcyclopentyl)-2-propenylidene)-4-methylenecyclohexane-1,3-diol] |  | 6% | 60% |  |  |  | Serum calcium vs. control (%) ([1]; dose 0.05 μg/kg/d i.p.): 106%; femur calcium vs. control (%) ([1]; dose 0.05 μg/kg/d i.p., * in cell = P < 0.05): 112* %
10 | C=C1/C(=C\C=C\[C@@H]2CC[C@](C)([C@@H](C)CC#CC(O)(C(F)(F)F)C(F)(F)F)C2(C)C)C[C@@H](O)C[C@@H]1O [(1R,3S)-5-((Z,2E)-3-((1S,3R)-3-((1S)-6,6,6-trifluoro-5-hydroxy-1-methyl-5-trifluoromethyl-3-hexynyl)-2,2,3-trimethylcyclopentyl)-2-propenylidene)-4-methylenecyclohexane-1,3-diol] |  | 2% | 75% | 103% |  | 117* % | 
